Results from PubChem BioAssay AID789 (SRMLSC, 2007).
Activity calls are given as the source filed them. No rule for the calls is given here.

Legend:
[1] = growth inhibition of apl2Δ yeast, dose response, selectivity assay for post-Golgi transport modulator project, S. cerevisiae, secondary screen, background strain comparison (AID 789); settings: S. cerevisiae background (wild-type parent) strain growth inhibition
[2] = test system: S. cerevisiae apl2Δ mutant growth inhibition; test: as above

CCCCSCCCNC(=O)Nc1cccc(OC)c1
IC50 [1]: > 10 µM | IC50 [2]: > 10 µM (inactive)

Cc1cc(=O)[nH]c(SCC(=O)c2ccc(C)c(C)c2)n1
IC50 [1]: 2.31 µM | IC50 [2]: 6.63 µM (inactive)

CC(=O)c1cnc2nc(C)nn2c1C
IC50 [1]: > 10 µM | IC50 [2]: > 10 µM (inactive)

COc1ccc(-c2cc(N)n(S(=O)(=O)c3c(F)c(F)c(F)c(F)c3F)n2)cc1OC
IC50 [1]: 1.08 µM | IC50 [2]: 9.68 µM (inactive)

c1ccc(COc2ccc(CN3CCN(c4ccccn4)CC3)cc2)cc1
IC50 [1]: > 10 µM | IC50 [2]: > 10 µM (inactive)

CN1/C(=C/C2CC(=O)NC2=O)C(C)(C)c2ccccc21 (stereo not drawn)
IC50 [1]: > 10 µM | IC50 [2]: > 10 µM (inactive)

CCCCC1(CCCC)C(=O)NC(=Nc2cccc(C)c2)NC1=O
IC50 [1]: > 10 µM | IC50 [2]: > 10 µM (inactive)

COc1ccc2c(c1)C(C)=CC(C)(C)N2C(=O)CSc1nnc(-c2ccc(C)cc2)o1
IC50 [1]: > 10 µM | IC50 [2]: > 10 µM (inactive)

CC(NC(=O)CSc1nc2c(cc1C#N)CN(C)CC2)c1ccccc1 (stereo not drawn)
IC50 [1]: > 10 µM | IC50 [2]: > 10 µM (inactive)

Cc1cc(NCCCN2CCOCC2)n2ncc(-c3ccc(Cl)cc3)c2n1
IC50 [1]: > 10 µM | IC50 [2]: > 10 µM (inactive)

Cc1nnc(-c2cccc(Br)c2)c2cn(-c3ccccc3Cl)nc12
IC50 [1]: 25.9 µM | IC50 [2]: > 10 µM (inactive)

CCOC(=O)c1cccnc1SCc1cc(=O)n2ccccc2n1
IC50 [1]: > 10 µM | IC50 [2]: > 10 µM (inactive)

COc1ccccc1N1CCN(C2CCN(C(=O)c3cc(OC)c(OC)c(OC)c3)CC2)CC1
IC50 [1]: > 10 µM | IC50 [2]: > 10 µM (inactive)

Cc1ccc(S(=O)(=O)c2c(C)nn(C(C)(C)C)c2OC(=O)c2ccc(Br)o2)cc1
IC50 [1]: > 10 µM | IC50 [2]: > 10 µM (inactive)

Cc1ccc(S(=O)(=O)N2CC3CC(C2)c2cccc(=O)n2C3)cc1 (stereo not drawn)
IC50 [1]: > 10 µM | IC50 [2]: > 10 µM (inactive)

O=C(NCc1ccccc1)NS(=O)(=O)c1ccccc1Cl
IC50 [1]: > 10 µM | IC50 [2]: > 10 µM (inactive)

O=C1c2cccc3c([N+](=O)[O-])ccc(c23)C(=O)N1c1ccc(Cl)cn1
IC50 [1]: 6.08 µM | IC50 [2]: 14.5 µM (inactive)

Cn1nnc2cc(C(=O)Nc3cccnc3)ccc21
IC50 [1]: > 10 µM | IC50 [2]: > 10 µM (inactive)

O=C(NC1CCCC1)C(c1ccsc1)N(C(=O)Cc1cccs1)c1ccc(F)cc1 (stereo not drawn)
IC50 [1]: > 10 µM | IC50 [2]: > 10 µM (inactive)

CN1CCN(CCCNC(=O)Cn2nc(-c3ccccc3)ccc2=O)CC1
IC50 [1]: > 10 µM | IC50 [2]: > 10 µM (inactive)

CCOC(=O)C(NC(C)=O)(Nc1ccc(S(=O)(=O)Nc2onc(C)c2C)cc1)C(F)(F)F (stereo not drawn)
IC50 [1]: > 10 µM | IC50 [2]: > 10 µM (inactive)

Cc1ccnc(N2C(=O)c3cccc4c([N+](=O)[O-])ccc(c34)C2=O)c1
IC50 [1]: 4.22 µM | IC50 [2]: 7.94 µM (inactive)

CC1CCCCC1NC(=O)CSc1nnnn1-c1ccccc1 (stereo not drawn)
IC50 [1]: > 10 µM | IC50 [2]: > 10 µM (inactive)

CCCOc1ccccc1N/C(=N/c1nc(C)cc(C)n1)NC(=O)COc1ccc(OC)cc1
IC50 [1]: > 10 µM | IC50 [2]: > 10 µM (inactive)

COc1ccc(NC(=O)N(C2CCCCC2)C(C)c2cccnc2)c(OC)c1 (stereo not drawn)
IC50 [1]: 16.7 µM | IC50 [2]: 12.6 µM

O=C(C1COc2ccccc2O1)N1CCN(Cc2ccc3c(c2)OCO3)CC1 (stereo not drawn)
IC50 [1]: > 10 µM | IC50 [2]: > 10 µM (inactive)

NC(=O)c1c(NC(=O)CN2C(=O)CCC2=O)sc2c1CCCCC2
IC50 [1]: > 10 µM | IC50 [2]: > 10 µM (inactive)

CCCCS(=O)(=O)/C=C\C=C/S(=O)(=O)CCCC
IC50 [1]: 13.9 µM | IC50 [2]: 19.8 µM (inactive)

C=CCc1ccc(OCC(O)CN2CCC(Cc3ccccc3)CC2)c(OC)c1 (stereo not drawn)
IC50 [1]: 19.1 µM | IC50 [2]: 12.5 µM
